Results reported in PMC12506092, “The MarR family transcription factor SlyA senses iron and respiratory status in enteric bacteria” (mBio, 2025).

What was measured:
[1] = target: T1, SlyA (Salmonella enterica, UniProt P40676); experiment: ITC with purified SlyA at […]°C; supported by 1H, […]-HSQC NMR; assay type: binding
[2] = target: T1, SlyA; experiment: ITC with purified SlyA; supported by NMR; assay type: binding

T1 sequence (P40676 whole entry): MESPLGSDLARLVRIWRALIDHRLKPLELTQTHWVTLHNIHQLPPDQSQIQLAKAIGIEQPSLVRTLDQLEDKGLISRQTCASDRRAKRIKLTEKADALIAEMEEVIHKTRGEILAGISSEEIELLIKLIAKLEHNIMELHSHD

Structure (SMILES) | Kd [1] [µM] | Kd [2] [µM]
O=C(O)c1cccc(O)c1O [2,3-dihydroxybenzoate] | ~57 | 
O=C(O)c1ccc(O)cc1 [4-hydroxybenzoate] | ~100 | 
O=C(O)c1ccccc1O [salicylate] |  | 36
